Molecular target: T1, IKZF2 (Helios) (Homo sapiens, UniProt Q96SW2+Q9UKS7)
T1 construct: CRISPR/Cas-mediated insertion of the HiBiT peptide tag (Promega™) to the N-terminus of the IKZF2 gene locus; endogenous in cells; host or cells: MOLT4 cells, CRISPR/Cas knock-in of HiBiT at the endogenous IKZF2 locus
Assay: MOLT4 IKZF2 HiBit assay protocol (Example 64)
Assay type: cell-based
Details: MOLT4 IKZF2 HiBit cells, 10-point 30 μM to 1 nM; table title: after 6 hours of treatment (method: incubated 24 hours)
Procedure: This protocol uses MOLT4 cells that were engineered using CRISPR/Cas9-mediated genomic insertion of HiBit, tagged to the N terminus of the IKZF2 coding sequence. Day 1. Created a 10-point dose response starting from 30 μM down to 1 nM using a Tecan D300e. Next added 8,000 cells/well of the MOLT4 IKZF2 HiBit cells to the compound plate. […] Day 2. Added Nano-Glo® HiBit Lytic Buffer/Nano-Glo® HiBit Lytic substrate/LgBit Protein mix to each well and incubated for 15 minutes. Finally, read luminescence signal using a BMG Labtech PHERAstar® FSX. Data was normalized to DMSO and graphed using GraphPad Prism to determine the concentration points at which 50% of HiBiT-Helios degradation was achieved by each compound. The extent of degradation (range of luminescence) from the highest to lowest concentration points was calculated to determine Dmax.

T1 sequence (Q9UKS7 whole entry): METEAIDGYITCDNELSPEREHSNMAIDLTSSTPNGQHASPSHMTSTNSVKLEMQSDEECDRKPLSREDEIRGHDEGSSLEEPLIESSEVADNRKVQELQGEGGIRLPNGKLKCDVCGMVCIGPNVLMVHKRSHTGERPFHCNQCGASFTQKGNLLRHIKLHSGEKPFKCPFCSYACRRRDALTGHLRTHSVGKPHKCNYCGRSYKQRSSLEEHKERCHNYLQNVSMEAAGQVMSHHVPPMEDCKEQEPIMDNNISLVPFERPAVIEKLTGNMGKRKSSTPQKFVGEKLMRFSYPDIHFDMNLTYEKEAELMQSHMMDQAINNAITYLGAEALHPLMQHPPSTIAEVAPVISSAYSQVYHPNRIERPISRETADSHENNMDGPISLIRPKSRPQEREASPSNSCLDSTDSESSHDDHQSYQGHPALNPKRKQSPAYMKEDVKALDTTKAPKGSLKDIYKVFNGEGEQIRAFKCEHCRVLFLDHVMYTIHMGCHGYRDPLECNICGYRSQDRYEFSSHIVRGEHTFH
T1 sequence (Q96SW2 whole entry): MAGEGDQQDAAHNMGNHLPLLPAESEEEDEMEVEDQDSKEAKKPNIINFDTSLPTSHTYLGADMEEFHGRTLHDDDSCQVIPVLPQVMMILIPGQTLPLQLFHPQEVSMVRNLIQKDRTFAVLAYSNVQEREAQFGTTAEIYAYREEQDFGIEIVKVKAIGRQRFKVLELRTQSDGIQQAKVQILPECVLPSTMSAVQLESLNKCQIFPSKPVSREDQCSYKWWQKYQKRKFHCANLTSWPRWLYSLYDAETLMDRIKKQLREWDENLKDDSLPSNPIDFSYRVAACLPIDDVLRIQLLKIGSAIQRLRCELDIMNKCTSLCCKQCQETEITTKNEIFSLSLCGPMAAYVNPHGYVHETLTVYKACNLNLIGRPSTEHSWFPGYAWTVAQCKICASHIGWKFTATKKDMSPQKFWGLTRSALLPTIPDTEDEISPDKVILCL
T1 sequence (Q16531 whole entry partner): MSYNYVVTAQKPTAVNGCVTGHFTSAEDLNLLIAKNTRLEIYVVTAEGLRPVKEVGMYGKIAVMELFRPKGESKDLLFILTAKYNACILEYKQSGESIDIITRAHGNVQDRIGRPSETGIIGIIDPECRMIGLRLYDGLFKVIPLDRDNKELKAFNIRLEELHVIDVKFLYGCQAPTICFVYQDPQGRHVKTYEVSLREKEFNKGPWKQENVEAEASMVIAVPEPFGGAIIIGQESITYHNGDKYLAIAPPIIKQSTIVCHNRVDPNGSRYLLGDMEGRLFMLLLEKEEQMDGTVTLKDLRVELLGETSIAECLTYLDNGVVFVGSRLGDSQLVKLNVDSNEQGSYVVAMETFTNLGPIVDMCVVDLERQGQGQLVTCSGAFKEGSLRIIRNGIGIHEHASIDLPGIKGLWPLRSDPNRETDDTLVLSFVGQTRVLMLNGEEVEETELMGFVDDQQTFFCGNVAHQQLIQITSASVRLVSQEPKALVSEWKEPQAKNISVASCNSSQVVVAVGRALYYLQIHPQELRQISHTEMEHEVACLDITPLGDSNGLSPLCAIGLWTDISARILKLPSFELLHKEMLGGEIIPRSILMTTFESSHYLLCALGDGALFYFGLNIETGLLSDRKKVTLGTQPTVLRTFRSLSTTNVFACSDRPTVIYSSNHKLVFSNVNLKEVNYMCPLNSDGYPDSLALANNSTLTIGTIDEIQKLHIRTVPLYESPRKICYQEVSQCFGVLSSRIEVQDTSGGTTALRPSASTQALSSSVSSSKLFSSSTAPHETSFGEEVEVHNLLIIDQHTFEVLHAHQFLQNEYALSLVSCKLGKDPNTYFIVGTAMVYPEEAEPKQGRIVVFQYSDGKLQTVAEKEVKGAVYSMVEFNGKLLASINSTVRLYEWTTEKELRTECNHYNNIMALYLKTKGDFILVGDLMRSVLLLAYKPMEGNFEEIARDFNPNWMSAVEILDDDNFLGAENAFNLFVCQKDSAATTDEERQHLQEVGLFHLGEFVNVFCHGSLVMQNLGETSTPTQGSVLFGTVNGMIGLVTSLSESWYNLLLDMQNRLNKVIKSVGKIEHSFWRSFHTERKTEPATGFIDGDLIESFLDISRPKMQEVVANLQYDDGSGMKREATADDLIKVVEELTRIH

Compound | DC50 [nM] | IKZF2 DC50 (M)
O=C1CCC(N2Cc3cc(C4CCN(Cc5ccc6ncn(-c7cccc(F)c7)c(=O)c6c5)CC4)ccc3C2=O)C(=O)N1 (stereo not drawn) [Compound 28, 3-(5-(1-((3-(3-fluorophenyl)-4-oxo-3,4-dihydroquinazolin-6-yl)methyl)piperidin-4-yl)-1-oxoisoindolin-2-yl)piperidine-2,6-dione] | 5 to 25 | 
O=C1CCC(N2Cc3cc(C4CCN(Cc5ccc6nc(-c7ccccc7)cn6c5)CC4)ccc3C2=O)C(=O)N1 (stereo not drawn) [Compound 54, 3-(1-oxo-5-(1-((2-phenylimidazo[1,2-a]pyridin-6-yl)methyl)piperidin-4-yl)isoindolin-2-yl)piperidine-2,6-dione] | < 5 | 
O=C1CCC(N2Cc3cc(C4CCN(Cc5ccc6nc(-c7ccccc7)nn6c5)CC4)ccc3C2=O)C(=O)N1 (stereo not drawn) [Compound 55, 3-(1-oxo-5-(1-((2-phenyl-[1,2,4]triazolo[1,5-a]pyridin-6-yl)methyl)piperidin-4-yl)isoindolin-2-yl)piperidine-2,6-dione] | 25 to 100 | 
O=C1CCC(N2Cc3cc(C4CCN(Cc5ccc6ncn(-c7cccc(C(F)(F)F)c7)c(=O)c6c5)CC4)ccc3C2=O)C(=O)N1 (stereo not drawn) [Compound 60, 3-(1-oxo-5-(1-((4-oxo-3-(3-(trifluoromethyl)phenyl)-3,4-dihydroquinazolin-6-yl)methyl)piperidin-4-yl)isoindolin-2-yl)piperidine-2,6-dione] | 5 to 25 | 
N#Cc1cccc(-n2cnc3ccc(CN4CCC(c5ccc6c(c5)CN(C5CCC(=O)NC5=O)C6=O)CC4)cc3c2=O)c1 (stereo not drawn) [Compound 61, 3-(6-((4-(2-(2,6-dioxopiperidin-3-yl)-1-oxoisoindolin-5-yl)piperidin-1-yl)methyl)-4-oxoquinazolin-3(4H)-yl)benzonitrile] | 5 to 25 | 
Cc1cccc(-n2cnc3ccc(CN4CCC(c5ccc6c(c5)CN(C5CCC(=O)NC5=O)C6=O)CC4)cc3c2=O)n1 (stereo not drawn) [Compound 62, 3-(5-(1-((3-(6-methylpyridin-2-yl)-4-oxo-3,4-dihydroquinazolin-6-yl)methyl)piperidin-4-yl)-1-oxoisoindolin-2-yl)piperidine-2,6-dione] | 5 to 25 | 
CC(C)c1cccc(-n2cnc3ccc(CN4CCC(c5ccc6c(c5)CN(C5CCC(=O)NC5=O)C6=O)CC4)cc3c2=O)n1 (stereo not drawn) [Compound 63, 3-(5-(1-((3-(6-isopropylpyridin-2-yl)-4-oxo-3,4-dihydroquinazolin-6-yl)methyl)piperidin-4-yl)-1-oxoisoindolin-2-yl)piperidine-2,6-dione] | 5 to 25 | 
O=C1CCC(N2Cc3cc(C4CCN(Cc5ccc6ncn(-c7cccc(C(F)(F)F)n7)c(=O)c6c5)CC4)ccc3C2=O)C(=O)N1 (stereo not drawn) [Compound 64, 3-(1-oxo-5-(1-((4-oxo-3-(6-(trifluoromethyl)pyridin-2-yl)-3,4-dihydroquinazolin-6-yl)methyl)piperidin-4-yl)isoindolin-2-yl)piperidine-2,6-dione] | 5 to 25 | 
COc1cccc(-n2cnc3ccc(CN4CCC(c5ccc6c(c5)CN(C5CCC(=O)NC5=O)C6=O)CC4)cc3c2=O)n1 (stereo not drawn) [Compound 65, 3-(5-(1-((3-(6-methoxypyridin-2-yl)-4-oxo-3,4-dihydroquinazolin-6-yl)methyl)piperidin-4-yl)-1-oxoisoindolin-2-yl)piperidine-2,6-dione] | 5 to 25 | 
O=C1CCC(N2Cc3cc(C4CCN(Cc5ccc6ncn(-c7cccnc7)c(=O)c6c5)CC4)ccc3C2=O)C(=O)N1 (stereo not drawn) [Compound 67, 3-(1-oxo-5-(1-((4-oxo-3-(pyridin-3-yl)-3,4-dihydroquinazolin-6-yl)methyl)piperidin-4-yl)isoindolin-2-yl)piperidine-2,6-dione] | 5 to 25 | 
Cc1ncccc1-n1cnc2ccc(CN3CCC(c4ccc5c(c4)CN(C4CCC(=O)NC4=O)C5=O)CC3)cc2c1=O (stereo not drawn) [Compound 68, 3-(5-(1-((3-(2-methylpyridin-3-yl)-4-oxo-3,4-dihydroquinazolin-6-yl)methyl)piperidin-4-yl)-1-oxoisoindolin-2-yl)piperidine-2,6-dione] | < 5 | 
Cc1ccc(-n2cnc3ccc(CN4CCC(c5ccc6c(c5)CN(C5CCC(=O)NC5=O)C6=O)CC4)cc3c2=O)cn1 (stereo not drawn) [Compound 69, 3-(5-(1-((3-(6-methylpyridin-3-yl)-4-oxo-3,4-dihydroquinazolin-6-yl)methyl)piperidin-4-yl)-1-oxoisoindolin-2-yl)piperidine-2,6-dione] |  | + +
O=C1CCC(N2Cc3cc(C4CCN(Cc5ccc6ncn(-c7cncc(F)c7)c(=O)c6c5)CC4)ccc3C2=O)C(=O)N1 (stereo not drawn) [Compound 75, 3-(5-(1-((3-(5-fluoropyridin-3-yl)-4-oxo-3,4-dihydroquinazolin-6-yl)methyl)piperidin-4-yl)-1-oxoisoindolin-2-yl)piperidine-2,6-dione] | 25 to 100 | 
Cn1cc(-n2cnc3ccc(CN4CCC(c5ccc6c(c5)CN(C5CCC(=O)NC5=O)C6=O)CC4)cc3c2=O)cn1 (stereo not drawn) [Compound 82, 3-(5-(1-((3-(1-methyl-1H-pyrazol-4-yl)-4-oxo-3,4-dihydroquinazolin-6-yl)methyl)piperidin-4-yl)-1-oxoisoindolin-2-yl)piperidine-2,6-dione] | 5 to 25 | 
Cc1nc2ccc(CN3CCC(c4ccc5c(c4)CN(C4CCC(=O)NC4=O)C5=O)CC3)cc2c(=O)n1-c1ccccc1 (stereo not drawn) [Compound 83, 3-(5-(1-((2-methyl-4-oxo-3-phenyl-3,4-dihydroquinazolin-6-yl)methyl)piperidin-4-yl)-1-oxoisoindolin-2-yl)piperidine-2,6-dione] | < 5 | 
Cc1nc2ccc(CN3CCC(c4ccc5c(c4)CN(C4CCC(=O)NC4=O)C5=O)CC3)cc2c(=O)n1-c1ccccn1 (stereo not drawn) [Compound 84, 3-(5-(1-((2-methyl-4-oxo-3-(pyridin-2-yl)-3,4-dihydroquinazolin-6-yl)methyl)piperidin-4-yl)-1-oxoisoindolin-2-yl)piperidine-2,6-dione] | < 5 | 
O=C1CCC(N2Cc3c(ccc(C4CCN(Cc5ccc6ncn(-c7ccccn7)c(=O)c6c5)CC4)c3F)C2=O)C(=O)N1 (stereo not drawn) [Compound 85, 3-(4-fluoro-1-oxo-5-(1-((4-oxo-3-(pyridin-2-yl)-3,4-dihydroquinazolin-6-yl)methyl)piperidin-4-yl)isoindolin-2-yl)piperidine-2,6-dione] | 25 to 100 | 
O=C1CCC(N2Cc3cc(C4CCN(Cc5cc6c(=O)n(-c7ccccn7)cnc6cc5F)CC4)ccc3C2=O)C(=O)N1 (stereo not drawn) [Compound 87, 3-(5-(1-((7-fluoro-4-oxo-3-(pyridin-2-yl)-3,4-dihydroquinazolin-6-yl)methyl)piperidin-4-yl)-1-oxoisoindolin-2-yl)piperidine-2,6-dione] | < 5 | 
O=C1CCC(N2Cc3c(ccc(C4CCN(Cc5ccc6ncn(-c7cccnc7)c(=O)c6c5)CC4)c3F)C2=O)C(=O)N1 (stereo not drawn) [Compound 89, 3-(4-fluoro-1-oxo-5-(1-((4-oxo-3-(pyridin-3-yl)-3,4-dihydroquinazolin-6-yl)methyl)piperidin-4-yl)isoindolin-2-yl)piperidine-2,6-dione] | 5 to 25 | 
O=C1CCC(N2Cc3cc(C4CCN(Cc5ccc6cc(-c7ccccn7)nn6c5)CC4)ccc3C2=O)C(=O)N1 (stereo not drawn) [Compound 92, 3-(1-oxo-5-(1-((2-(pyridin-2-yl)pyrazolo[1,5-a]pyridin-6-yl)methyl)piperidin-4-yl)isoindolin-2-yl)piperidine-2,6-dione] | 5 to 25 | 
O=C1CCC(N2Cc3cc(C4CCN(Cc5cn6cc(-c7ccccc7)ccc6n5)CC4)ccc3C2=O)C(=O)N1 (stereo not drawn) [Compound 96, 3-(1-oxo-5-(1-((6-phenylimidazo[1,2-a]pyridin-2-yl)methyl)piperidin-4-yl)isoindolin-2-yl)piperidine-2,6-dione] | 25 to 100 | 
O=C1CCC(N2Cc3cc(C4CCN(Cc5cn6cc(-c7cccnc7)ccc6n5)CC4)ccc3C2=O)C(=O)N1 (stereo not drawn) [Compound 97, 3-(1-oxo-5-(1-((6-(pyridin-3-yl)imidazo[1,2-a]pyridin-2-yl)methyl)piperidin-4-yl)isoindolin-2-yl)piperidine-2,6-dione] | 25 to 100 | 
O=C1CCC(N2Cc3cc(C4CCN(Cc5cn6ccc(-c7ccccc7)cc6n5)CC4)ccc3C2=O)C(=O)N1 (stereo not drawn) [Compound 98, 3-(1-oxo-5-(1-((7-phenylimidazo[1,2-a]pyridin-2-yl)methyl)piperidin-4-yl)isoindolin-2-yl)piperidine-2,6-dione] | 25 to 100 | 
O=C1CCC(N2Cc3cc(C4CCN(Cc5cn6ccc(-c7cccnc7)cc6n5)CC4)ccc3C2=O)C(=O)N1 (stereo not drawn) [Compound 99, 3-(1-oxo-5-(1-((7-(pyridin-3-yl)imidazo[1,2-a]pyridin-2-yl)methyl)piperidin-4-yl)isoindolin-2-yl)piperidine-2,6-dione] | 25 to 100 | 

— patent US20240034723A1, “PIPERIDINYL SMALL MOLECULE DEGRADERS OF HELIOS AND METHODS OF USE” (DANA-FARBER CANCER INSTITUTE, INC., priority 2020, published 2024)
